Laboratory results published in PubChem BioAssay (NCI).
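Results reflect a 48-hour exposure of cells in 96-well plates to compound at five concentrations. TGI: concentration producing complete growth inhibition.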

Legend:
Test in all cases: NCI anticancer screen, dose series, 48 h
[1] = tested on: SF-295 CNS
[2] = tested on: HCT-116 colon
[3] = tested on: SK-OV-3 ovarian
[4] = tested on: SK-MEL-28 melanoma
[5] = tested on: HCC-2998 colon
[6] = tested on: RPMI-8226 leukemia
[7] = tested on: SN12C renal
[8] = tested on: KM12 colon
[9] = tested on: UO-31 renal
[10] = tested on: HOP-18 NSCLC
[11] = tested on: OVCAR-5 ovarian
[12] = tested on: NCI-H460 lung
[13] = tested on: U251 CNS
[14] = tested on: LXFL 529 NSCLC
[15] = tested on: HOP-92 NSCLC
[16] = tested on: OVCAR-3 ovarian
[17] = tested on: CCRF-CEM leukemia
[18] = tested on: KM20L2 colon
[19] = tested on: M19-MEL melanoma
[20] = tested on: ACHN renal
[21] = tested on: SW-620 colon
[22] = tested on: NCI-H522 lung
[23] = tested on: DMS 114 small cell lung
[24] = tested on: SK-MEL-2 melanoma
[25] = tested on: UACC-62 melanoma
[26] = tested on: MALME-3M melanoma
[27] = tested on: NCI-H23 lung
[28] = tested on: COLO 205 colon
[29] = tested on: OVCAR-8 ovarian
[30] = tested on: TK-10 renal
[31] = tested on: XF 498 CNS
[32] = tested on: SF-539 CNS
[33] = tested on: 786-0 renal
[34] = tested on: HL-60(TB) leukemia
[35] = tested on: HCT-15 colon
[36] = tested on: LOX IMVI melanoma
[37] = tested on: SF-268 CNS
[38] = tested on: IGROV1 ovarian
[39] = tested on: SR leukemia
[40] = tested on: RXF 393 renal
[41] = tested on: UACC-257 melanoma
[42] = tested on: DLD-1 colon
[43] = tested on: A549 NSCLC
[44] = tested on: EKVX NSCLC
[45] = tested on: MOLT-4 leukemia
[46] = tested on: HT29 colon
[47] = tested on: HOP-62 NSCLC
[48] = tested on: DMS 273 small cell lung
[49] = tested on: NCI-H226 lung
[50] = tested on: K-562 leukemia
[51] = tested on: SNB-75 CNS
[52] = tested on: SNB-19 CNS
[53] = tested on: M14 melanoma
[54] = tested on: SK-MEL-5 melanoma
[55] = tested on: CAKI-1 renal
[56] = tested on: SNB-78 CNS
[57] = tested on: OVCAR-4 ovarian
[58] = tested on: A498 renal

CCOC(=O)COc1ccc(OCC(=O)OCC)c2c1C(=O)CCCC2=O
TGI [1]: > 100 µM | TGI [2]: > 100 µM | TGI [3]: > 100 µM | TGI [4]: > 100 µM | TGI [5]: > 100 µM | TGI [6]: > 100 µM | TGI [7]: > 100 µM | TGI [8]: > 100 µM | TGI [9]: > 100 µM | TGI [10]: > 100 µM | TGI [11]: > 100 µM | TGI [12]: > 100 µM | TGI [13]: > 100 µM | TGI [14]: > 100 µM | TGI [15]: > 100 µM | TGI [16]: > 100 µM | TGI [17]: > 100 µM | TGI [18]: > 100 µM | TGI [19]: > 100 µM | TGI [20]: > 100 µM | TGI [21]: > 100 µM | TGI [22]: > 100 µM | TGI [23]: > 100 µM | TGI [24]: > 100 µM | TGI [25]: > 100 µM | TGI [26]: > 100 µM | TGI [27]: > 100 µM | TGI [28]: > 100 µM | TGI [29]: > 100 µM | TGI [30]: > 100 µM | TGI [31]: > 100 µM | TGI [32]: > 100 µM | TGI [33]: > 100 µM | TGI [34]: > 100 µM | TGI [35]: > 100 µM | TGI [36]: > 100 µM | TGI [37]: > 100 µM | TGI [38]: > 100 µM | TGI [39]: > 100 µM | TGI [40]: > 100 µM | TGI [41]: > 100 µM | TGI [42]: > 100 µM | TGI [43]: > 100 µM | TGI [44]: > 100 µM | TGI [45]: > 100 µM | TGI [46]: > 100 µM | TGI [47]: > 100 µM | TGI [48]: > 100 µM | TGI [49]: > 100 µM | TGI [50]: > 100 µM | TGI [51]: > 100 µM | TGI [52]: > 100 µM | TGI [53]: > 100 µM | TGI [54]: 0.846 µM

Cc1cc(OCC(O)CO)ccc1-c1ccccc1 (centres undefined)
TGI [2]: > 100 µM | TGI [4]: > 100 µM | TGI [5]: > 100 µM | TGI [7]: > 100 µM | TGI [8]: > 100 µM | TGI [9]: > 100 µM | TGI [10]: > 100 µM | TGI [12]: > 100 µM | TGI [13]: > 100 µM | TGI [14]: > 100 µM | TGI [15]: > 100 µM | TGI [16]: > 100 µM | TGI [17]: > 100 µM | TGI [55]: > 100 µM | TGI [18]: > 100 µM | TGI [19]: > 100 µM | TGI [20]: > 100 µM | TGI [21]: 23.7 µM | TGI [22]: > 100 µM | TGI [23]: > 100 µM | TGI [24]: > 100 µM | TGI [25]: > 100 µM | TGI [26]: > 100 µM | TGI [27]: > 100 µM | TGI [28]: > 100 µM | TGI [56]: > 100 µM | TGI [29]: > 100 µM | TGI [30]: > 100 µM | TGI [31]: > 100 µM | TGI [33]: > 100 µM | TGI [34]: > 100 µM | TGI [35]: > 100 µM | TGI [57]: > 100 µM | TGI [37]: > 100 µM | TGI [38]: > 100 µM | TGI [39]: > 100 µM | TGI [40]: 87.1 µM | TGI [41]: > 100 µM | TGI [43]: > 100 µM | TGI [44]: > 100 µM | TGI [45]: > 100 µM | TGI [46]: > 100 µM | TGI [58]: 80.4 µM | TGI [48]: > 100 µM | TGI [49]: > 100 µM | TGI [50]: > 100 µM | TGI [51]: > 100 µM | TGI [52]: > 100 µM | TGI [53]: > 100 µM | TGI [54]: > 100 µM

COc1cc(Nc2cnc3cc(N)ccc3n2)cc(OC)c1OC
TGI [1]: > 100 µM | TGI [2]: > 100 µM | TGI [3]: > 100 µM | TGI [4]: > 100 µM | TGI [5]: > 100 µM | TGI [7]: > 100 µM | TGI [8]: > 100 µM | TGI [9]: > 100 µM | TGI [10]: > 100 µM | TGI [11]: > 100 µM | TGI [12]: > 100 µM | TGI [13]: > 100 µM | TGI [14]: > 100 µM | TGI [15]: > 100 µM | TGI [16]: > 100 µM | TGI [17]: > 100 µM | TGI [55]: > 100 µM | TGI [18]: > 100 µM | TGI [19]: > 100 µM | TGI [20]: > 100 µM | TGI [21]: > 100 µM | TGI [22]: > 100 µM | TGI [23]: > 100 µM | TGI [24]: > 100 µM | TGI [25]: > 100 µM | TGI [26]: > 100 µM | TGI [27]: > 100 µM | TGI [28]: > 100 µM | TGI [29]: > 100 µM | TGI [30]: > 100 µM | TGI [31]: > 100 µM | TGI [32]: > 100 µM | TGI [33]: > 100 µM | TGI [34]: > 100 µM | TGI [35]: > 100 µM | TGI [36]: > 100 µM | TGI [57]: > 100 µM | TGI [37]: > 100 µM | TGI [38]: > 100 µM | TGI [39]: > 100 µM | TGI [41]: > 100 µM | TGI [42]: > 100 µM | TGI [43]: > 100 µM | TGI [44]: > 100 µM | TGI [45]: > 100 µM | TGI [46]: > 100 µM | TGI [47]: > 100 µM | TGI [58]: > 100 µM | TGI [48]: 28.1 µM | TGI [50]: > 100 µM | TGI [51]: > 100 µM | TGI [52]: > 100 µM | TGI [53]: > 100 µM | TGI [54]: > 100 µM

OCc1nnn2c1CCC2
TGI [1]: > 100 µM | TGI [3]: > 100 µM | TGI [4]: > 100 µM | TGI [5]: > 100 µM | TGI [7]: > 100 µM | TGI [8]: > 100 µM | TGI [9]: > 100 µM | TGI [10]: > 100 µM | TGI [11]: > 100 µM | TGI [12]: > 100 µM | TGI [13]: > 100 µM | TGI [14]: > 100 µM | TGI [15]: > 100 µM | TGI [16]: > 100 µM | TGI [17]: > 100 µM | TGI [18]: > 100 µM | TGI [19]: > 100 µM | TGI [20]: > 100 µM | TGI [21]: > 100 µM | TGI [22]: > 100 µM | TGI [24]: > 100 µM | TGI [25]: > 100 µM | TGI [26]: > 100 µM | TGI [27]: > 100 µM | TGI [56]: > 100 µM | TGI [29]: > 100 µM | TGI [30]: > 100 µM | TGI [31]: > 100 µM | TGI [32]: > 100 µM | TGI [34]: > 100 µM | TGI [35]: > 100 µM | TGI [36]: > 100 µM | TGI [57]: > 100 µM | TGI [38]: > 100 µM | TGI [39]: > 100 µM | TGI [40]: > 100 µM | TGI [41]: > 100 µM | TGI [42]: > 100 µM | TGI [43]: > 100 µM | TGI [44]: > 100 µM | TGI [45]: > 100 µM | TGI [46]: > 100 µM | TGI [47]: > 100 µM | TGI [50]: > 100 µM | TGI [51]: > 100 µM | TGI [53]: > 100 µM | TGI [54]: > 100 µM

COC1CC2C3/C(=N/Nc4ccc([N+](=O)[O-])cc4[N+](=O)[O-])CCC2(C)C3C1 (centres undefined)
TGI [1]: > 10 µM | TGI [2]: > 100 µM | TGI [3]: > 10 µM | TGI [4]: > 100 µM | TGI [5]: > 10 µM | TGI [6]: > 100 µM | TGI [7]: > 10 µM | TGI [8]: > 100 µM | TGI [9]: > 10 µM | TGI [10]: > 10 µM | TGI [11]: > 10 µM | TGI [12]: > 100 µM | TGI [13]: > 10 µM | TGI [14]: > 10 µM | TGI [15]: > 10 µM | TGI [16]: > 10 µM | TGI [55]: > 10 µM | TGI [18]: > 10 µM | TGI [19]: > 10 µM | TGI [20]: > 10 µM | TGI [21]: > 10 µM | TGI [22]: > 10 µM | TGI [23]: > 100 µM | TGI [24]: > 10 µM | TGI [25]: > 10 µM | TGI [26]: > 10 µM | TGI [27]: > 10 µM | TGI [28]: > 10 µM | TGI [29]: > 100 µM | TGI [30]: > 100 µM | TGI [31]: > 100 µM | TGI [32]: > 10 µM | TGI [33]: > 10 µM | TGI [34]: > 100 µM | TGI [35]: > 100 µM | TGI [36]: > 10 µM | TGI [57]: > 10 µM | TGI [37]: > 100 µM | TGI [38]: > 10 µM | TGI [39]: > 100 µM | TGI [41]: > 100 µM | TGI [42]: > 10 µM | TGI [43]: > 100 µM | TGI [45]: > 100 µM | TGI [46]: > 10 µM | TGI [47]: > 10 µM | TGI [58]: > 10 µM | TGI [48]: > 10 µM | TGI [49]: > 10 µM | TGI [50]: > 100 µM | TGI [51]: > 10 µM | TGI [52]: > 10 µM | TGI [53]: > 10 µM | TGI [54]: > 10 µM
